From publication PMC5289526, “Crystal Structure and Catalytic Mechanism of CouO, a Versatile C-Methyltransferase from Streptomyces rishiriensis” (PLoS ONE, 2017) come the findings set out here.

For the test, the target named is T1, CouO (Streptomyces rishiriensis, UniProt Q9F8T9).
T1 construct: recombinant from E. coli; pET26b-CouO template, pMS470 vector in E. coli TOP10F' for activity assays
The test is described as follows: X-ray crystal structure, […] Å. The format is binding. To be noted: one SAH in each of two chains; cofactor site.

T1 sequence (Q9F8T9 whole entry): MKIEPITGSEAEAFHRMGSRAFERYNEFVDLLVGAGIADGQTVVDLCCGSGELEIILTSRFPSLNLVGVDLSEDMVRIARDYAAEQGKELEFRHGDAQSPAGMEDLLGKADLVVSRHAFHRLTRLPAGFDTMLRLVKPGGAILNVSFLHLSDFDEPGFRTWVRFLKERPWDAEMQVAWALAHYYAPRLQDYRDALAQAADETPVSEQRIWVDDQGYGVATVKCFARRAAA

Take `Nc1ncnc2c1ncn2[C@@H]1O[C@H](CSCC[C@H](N)C(=O)O)[C@@H](O)[C@H]1O` [SAH]: the “X-ray crystal structure, 2.05 Å” value is listed as “one SAH cofactor molecule was present in each chain”.
